Test results from patent US8298781B2, “Compositions and methods for characterizing and regulating olfactory sensation” (Duke University, priority 2007, dated 2012).

Test system: human subjects
Assay: Human olfactory psychophysics: valence rating by OR7D4 genotype
Assay type: in vivo
Conditions: for valence rating, OR7D4 RT/WM vs RT/RT subjects: 7-point scale, two concentrations pooled; for valence rating, RT/S84N subjects vs RT/RT controls: N=7 RT/S84N; for valence rating of OR7D4 WM/WM subjects relative to solvent propylene glycol: N=10 WM/WM; for valence rating, RT/P79L subjects vs RT/RT controls: N=30 RT/P79L
Procedure: Human olfactory psychophysics. All human subjects gave informed consent to participate in this study and were tested in a well-ventilated room. Normal human subjects (n=412; 218 female, 194 male; median age 34, age range 19-75) were pre-screened to exclude pregnant women and those with medical conditions causing general impairment of the sense of smell. All subjects completed two replicates of the test separated by at least 4 days. Odors were presented in amber vials as previously described (see, e.g., Keller, A., et al., Nat Neurosci 7, 337-338 (2004); herein incorporated by reference in its entirety) using bar-coded symbols to ensure that subjects were blind to the identity of all odors. The intensity and valence of 66 odors at two concentrations (“high” and “low”) and two solvents was rated using a 7-point scale. Thresholds were calculated using the single staircase method with seven reversals (see, e.g., Doty, R. L., et al., Chem Senses 20, 645-656 (1995); Doty, R. L. & Laing, D. G. in Handbook of Olfaction and Gustation (ed. Doty, R. L.) pp. 203-228 (Marcel Dekker, Inc., New York, 2003); each of which are herein incorporated by reference in their entireties). Threshold tests included both steroids as binary dilutions from […] (binary dilution 6) to 1: 134,217,728 (binary dilution 27). Subjects who could not reliably distinguish a 1:64 dilution of androstenone and androstadienone from solvent were operationally defined as anosmic to these odorous steroids, although it could not be excluded that these subjects could detect higher concentrations of these steroids (see, e.g., Bremner, E. A., et al., Chem Senses 28, 423-432 (2003); herein incorporated by reference in its entirety). Odor profiling used the method established by Dravnieks, et al. (see, e.g., Dravnieks, A., et al., Science 218, 799-801 (1982); herein incorporated by reference in its entirety).
Stimuli for olfactory psychophysics. All odors were presented as one ml of an odor dilution in either propylene glycol or paraffin oil in 20 ml amber glass vials. All of these compounds were used in the intensity and valence rating portion of the smell test.
Olfactory ratings. The intensity and valence of 66 odors were rated at two different concentrations (high and low) and the intensity and valence of the two solvents (paraffin oil and propylene glycol) was rated three times. Prior to these ratings, six stimuli that represented the spectrum of intensity and valence of the stimuli used in the study were presented to allow the subjects to calibrate the usage of the scale. The subjects were unaware that the six first stimuli served that purpose. After the rating of the 66 odors at two concentrations and the rating of the solvents, 15 stimuli that were presented earlier in the experiment were repeated to test for the effect of adaptation and olfactory fatigue on the ratings. The subjects were not aware that the last 15 stimuli served this purpose. These 15 stimuli and the six first stimuli were not included in the analysis presented here. […] The 15 control stimuli and their concentrations were as follows:
In addition there was a button on the screen labeled “I can't smell anything” and a button labeled “Don't Know”. If the “Don't Know” button was pressed, no rating was recorded. If the “I can't smell anything” button was pressed, a 0 was recorded for the intensity rating and no rating was recorded for the valence rating. The other ratings were transformed according to the following scheme:
• Extremely Weak=1 • Very Weak=2 • Slightly Weak=3 • Neither Weak nor Strong=4 • Slightly Strong=5 • Very Strong=6 • Extremely Strong=7 Valence Rating • Extremely Unpleasant=1 • Very Unpleasant=2 • Slightly Unpleasant=3 • Neither Unpleasant nor Pleasant=4 • Slightly Pleasant=5 • Very Pleasant=6 • Extremely Pleasant=7
Averages for the ratings of the different genotypes were calculated. […]

Row | SMILES | valence rating, OR7D4 RT/WM vs RT/RT subjects | valence rating, RT/S84N subjects vs RT/RT controls | valence rating of OR7D4 WM/WM subjects relative to solvent propylene glycol | valence rating, RT/P79L subjects vs RT/RT controls
1 | C[C@@]12C=CC[C@H]1[C@@H]1CCC3=CC(=O)CC[C@]3(C)[C@H]1CC2 [androstadienone, androsta-4,16-dien-3-one] | more pleasant | less pleasant | more unpleasant than the solvent | more pleasant
2 | C[C@]12CCC(=O)C[C@@H]1CC[C@@H]1[C@@H]2CC[C@]2(C)C=CC[C@@H]12 [androstenone, 5α-androst-16-en-3-one] | more pleasant | less pleasant | more unpleasant than the solvent | more pleasant
